{
  "source": "patent US9133199B2",
  "about": "“Pyrimidine derivatives as protein kinase inhibitors” (Cyclacel Limited, priority 2007, dated 2015)",
  "key": {"[1]": {"assay": "Nephelometry kinetic solubility", "assay_type": "physicochemical", "excerpt": "If a DMSO solution of a water soluble compound is introduced into aqueous buffer, the mixture remains clear unless the aqueous solubility limit is reached. Above the solubility limit, precipitation occurs and light travelling through the turbid suspension is scattered. The measurement of the intensity of the scattered light is the basis of nephelometric solubility determination.\nSelected compounds were screened using a nephelometer to identify the concentration at which turbidity occurs, thereby giving an indication of kinetic solubility. By nephelometry (2% DMSO: 98% phosphate buffered saline pH 7.5) compound [254] was freely soluble at 200 μM (>0.11 mg/mL) which is the highest concentration tested in this assay. In contrast, in the same nephelometry assay, the maximum soluble concentration of prior art Example [I-253] of WO 07/095,188 was determined to be 75 μM (Table 6)."}, "[2]": {"assay": "Pharmacokinetics in fasted conscious CD-1 mice (iv and oral)", "assay_type": "in vivo", "conditions": "compared to compounds A-G", "protocol": "Preliminary investigations of the pharmacokinetics of selected compounds were carried out in fasted conscious CD-1 mice (25-30 g). Compounds were dosed as 1 mg/kg by intravenous administration or 5-10 mg/kg by oral route. Twenty one male mice per administration route (n=3 mice per time point) received dose solution by single bolus injection in the tail vein or by oral gavage. Blood samples were collected by cardiac puncture at 5, 15, 30, 60, 120, 240 and 360 min following iv administration and at 30, 60, 120, 240, 360, 480 and 1440 min following oral administration. Blood samples were collected into tubes containing the anti-coagulant lithium heparin, mixed and placed promptly on crushed ice. Plasma was derived from whole blood by centrifugation, frozen and stored at −80° C. prior to analysis. Plasma concentrations were determined by liquid chromatography-tandem mass spectrometry in electrospray positive mode (ESI LC/MS/MS) using calibration curves prepared in the appropriate matrix. The lower level of quantification (LLOQ) in all cases was ca. 5 ng/mL. Plasma concentration-time data was processed using the computer program WinNonLin version 5.2 from which areas under the plasma concentration-time curve (AUCall) were calculated by non-compartmental analysis using Model 201 (IV-bolus Input) or Model 200 (Extravascular Input).\nFIG. 1 plots the area under the curve (AUC) for plasma concentration vs time for each compound tested. The dosing vehicle across these experiments remained constant (intravenous=citrate buffer pH 3, 1 mL/kg; oral=DMA/PEG400/10 mM Tartrate buffer, pH 4 (1:3:6), 5 ml/kg). FIG. 2 represents the same data in the form of oral bioavailability (% F) for each compound."}, "human PLK1": {"target": "human PLK1 (Homo sapiens (Human), UniProt P53350)", "sequence (P53350 whole entry)": "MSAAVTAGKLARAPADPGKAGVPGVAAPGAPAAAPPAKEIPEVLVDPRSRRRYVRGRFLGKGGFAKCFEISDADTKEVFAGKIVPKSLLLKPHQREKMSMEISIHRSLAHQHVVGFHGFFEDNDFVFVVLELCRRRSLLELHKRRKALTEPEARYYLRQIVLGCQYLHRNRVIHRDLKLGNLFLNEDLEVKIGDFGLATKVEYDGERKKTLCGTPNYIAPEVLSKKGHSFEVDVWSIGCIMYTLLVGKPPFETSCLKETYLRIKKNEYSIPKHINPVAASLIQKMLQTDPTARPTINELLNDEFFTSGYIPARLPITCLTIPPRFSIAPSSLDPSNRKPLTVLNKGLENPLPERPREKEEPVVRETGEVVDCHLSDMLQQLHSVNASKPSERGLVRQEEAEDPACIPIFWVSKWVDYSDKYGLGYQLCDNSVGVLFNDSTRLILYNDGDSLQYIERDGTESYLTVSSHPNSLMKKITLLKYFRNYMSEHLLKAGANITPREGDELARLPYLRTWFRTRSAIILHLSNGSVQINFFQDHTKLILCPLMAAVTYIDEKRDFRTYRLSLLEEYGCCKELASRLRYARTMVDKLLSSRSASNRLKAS", "assay": "PLK1 protein kinase assay (CDC25C phosphorylation, [γ-32P]-ATP)", "assay_type": "biochemical", "source_text": "A full-length human CDC25C clone was isolated by PCR from HeLa mRNA and was inserted on a BamHI-HindIII fragment into pRsetA. The amino terminal fragment of CDC25C (encoding residues 1-300) was excised from this vector and inserted into pET28a (between the NcoI and BamHI sites). Expression was under the control of the T7 promoter, and the encoded protein contained a His6 tag at the carboxyl terminus. The vector was transformed into E. coli strain BRL(DE3) pLysS for expression experiments. CDC25C was expressed in BL21(DE3) RIL bacteria cells, grown in LB media at 37° C. until OD600 nm of 0.6 was reached. The expression was induced with 1 mM IPTG and the bacterial culture was grown further for 3 h. The bacteria were harvested by centrifugation and the cell pellet was re-suspended in 50 mM Tris pH 7.5 and 10% sucrose, flash frozen, and stored at −70° C. until used. CDC25C protein was purified from E. coli inclusion bodies. The inclusion bodies were isolated in a buffer (50 mM Tris pH 8.0, 2 mM EDTA, 100 mM NaCl, 0.5% triton X-100). After denaturation in the presence of 6 M urea, the protein was refolded via slow dialysis of the urea. The protein was stored in 25 mM Tris pH 8.0, 100 mM NaCl, 1 mM DTT, 1 mM EDTA and 10% glycerol at −70° C. until used.\nThe 3′ primer ([sequence]) incorporated a stop codon prior to the EcoR1 site. The PCR product was cloned into the Nhe1/EcoR1 sites of a baculovirus expression vector, pSSP1. […] Sf9 cells of a passage number less than 20 were split back to give a 300 mL culture volume, at a cell density of 1.5×10^6 cells/mL. Cells were only used for expression in logarithmic growth phase. PLK1 baculovirus (from P2 amplification) was added to give a multiplicity of infection of 3, this is equivalent to 3 virus particles for each insect cell. The flasks were incubated at 27° C., with shaking at 100 r.p.m. for 48 h. On harvest, cell density and viability was determined, the cultures spun down at 2500 r.p.m. for 5 min and washed with ice-cold phosphate-buffered saline. The wash was re-spun at the same speed and the pellet was snap frozen. PLK1 protein was purified on a metal affinity column.\nPLK1 protein kinase assays were carried out using a 96−well plate format by incubating CDC25C (2 μg/well) with PLK1 (1 μg/well) in 20 mM Tris/HCl buffer pH 7.5, supplemented with 25 mM β-glycerophosphate, 5 mM EGTA, 1 mM DTT and 1 mM NaVO3. Serial dilutions of test compound in assay buffer were added. Reaction was initiated by the addition of 100 μM ATP and 0.5 μCi of [γ-^32P]-ATP. The reaction mixture was incubated at 30° C. for 1 h, then stopped with 75 mM aq orthophosphoric acid, transferred onto a 96-well P81 filter plate (Whatman), dried, and the extent of CDC25C phosphorylation was assessed by scintillation counting using a Packard TopCount plate reader. The raw assay data was analysed by non-linear regression analysis parameters and IC50 values were determined using the equation: y=A+((B−A)/(1+((C/x)^D))), where y is % inhibition, A is minimum inhibition, B is maximum inhibition, C is EC50, and D is the slope factor."}, "PLK3": {"target": "PLK3 (Homo sapiens (Human), UniProt Q9H4B4)", "sequence (Q9H4B4 whole entry)": "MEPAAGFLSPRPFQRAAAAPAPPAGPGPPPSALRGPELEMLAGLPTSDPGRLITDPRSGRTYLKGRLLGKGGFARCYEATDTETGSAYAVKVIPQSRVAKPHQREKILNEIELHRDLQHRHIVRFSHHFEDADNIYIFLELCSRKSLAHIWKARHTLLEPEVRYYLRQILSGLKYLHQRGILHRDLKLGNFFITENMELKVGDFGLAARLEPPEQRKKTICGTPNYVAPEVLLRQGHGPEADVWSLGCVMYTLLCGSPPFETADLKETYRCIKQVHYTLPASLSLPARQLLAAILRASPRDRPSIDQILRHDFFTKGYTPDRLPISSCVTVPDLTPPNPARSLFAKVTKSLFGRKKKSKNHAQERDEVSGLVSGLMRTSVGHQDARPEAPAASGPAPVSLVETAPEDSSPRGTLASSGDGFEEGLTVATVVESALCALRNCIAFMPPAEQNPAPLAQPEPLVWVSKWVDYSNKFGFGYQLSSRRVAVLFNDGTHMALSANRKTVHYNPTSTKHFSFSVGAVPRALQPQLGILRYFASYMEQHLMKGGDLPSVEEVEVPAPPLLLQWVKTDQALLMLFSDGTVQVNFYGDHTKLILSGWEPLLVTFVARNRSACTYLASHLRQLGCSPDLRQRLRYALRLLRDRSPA", "assay": "PLK selectivity: PLK3 inhibition", "assay_type": "biochemical", "conditions": "for PLK3 IC50/PLK1 IC50: selectivity ratio"}, "PLK2": {"target": "PLK2 (Homo sapiens (Human), UniProt Q9NYY3)", "sequence (Q9NYY3 whole entry)": "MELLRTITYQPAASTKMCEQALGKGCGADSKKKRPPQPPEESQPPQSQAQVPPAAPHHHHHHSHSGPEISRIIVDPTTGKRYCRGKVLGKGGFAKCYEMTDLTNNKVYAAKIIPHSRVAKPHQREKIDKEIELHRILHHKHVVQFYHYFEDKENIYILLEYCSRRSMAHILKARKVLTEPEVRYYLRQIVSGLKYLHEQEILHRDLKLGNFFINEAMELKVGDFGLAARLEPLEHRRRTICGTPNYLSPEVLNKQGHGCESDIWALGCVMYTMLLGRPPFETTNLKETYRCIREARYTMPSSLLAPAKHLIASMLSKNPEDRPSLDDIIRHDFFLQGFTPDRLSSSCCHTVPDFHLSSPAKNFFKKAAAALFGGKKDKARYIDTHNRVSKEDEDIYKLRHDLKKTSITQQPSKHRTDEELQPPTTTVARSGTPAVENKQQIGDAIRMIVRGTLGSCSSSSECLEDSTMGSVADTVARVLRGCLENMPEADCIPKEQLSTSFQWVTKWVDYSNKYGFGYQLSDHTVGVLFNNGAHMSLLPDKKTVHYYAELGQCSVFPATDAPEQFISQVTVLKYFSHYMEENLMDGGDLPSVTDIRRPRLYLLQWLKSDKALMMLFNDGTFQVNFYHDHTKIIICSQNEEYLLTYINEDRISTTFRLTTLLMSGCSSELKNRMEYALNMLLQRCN", "assay": "PLK selectivity: PLK2 inhibition", "assay_type": "biochemical", "conditions": "for PLK2 IC50/PLK1 IC50: selectivity ratio"}, "[3]": {"conditions": "phosphate buffered saline with 2% DMSO, pH 7.5, aqueous buffer, kinetic from dmso stock, 2% DMSO: 98% phosphate buffered saline pH 7.5, highest concentration tested 200 μM, read-out: Nephelometry maximum soluble concentration"}},
  "note": "Counter-ions that a name gives are not always drawn. Like-named read-outs stand apart in the source and are kept apart here.",
  "data": [
    {"smiles": "COc1cc(C(=O)NN2CCN(C)CC2)ccc1Nc1ncc2c(n1)N(C1CCCC1)CC1(CC1)C(=O)N2C", "note": "[Compound 254, 4-(9′-cyclopentyl-5′-methyl-6′-oxo-5′,6′,8′,9′-tetrahydrospiro[cyclopropane-1,7′-pyrimido[4,5-b][1,4]diazepine]-2′-ylamino)-3-methoxy-N-(4-methylpiperazin-1-yl)benzamide]", "values": [
      {"measurement": "solubility", "setting": "[1]; [3]", "value": "≥ 200", "unit": "µM"},
      {"measurement": "solubility", "setting": "[1]; phosphate buffered saline with 2% DMSO, pH 7.5, aqueous buffer, kinetic from dmso stock, 2% DMSO: 98% phosphate buffered saline pH 7.5, read-out: Nephelometry soluble concentration", "value": "> 110", "unit": "µg/mL"}
    ]},
    {"smiles": "COc1cc(C(=O)N[C@H]2CC[C@H](N3CCN(CC4CC4)CC3)CC2)ccc1Nc1ncc2c(n1)N(C1CCCC1)CCC(=O)N2C", "note": "[Compound 378, 4-(9-cyclopentyl-5-methyl-6-oxo-6,7,8,9-tetrahydro-5H-pyrimido[4,5-b][1,4]diazepin-2-ylamino)-N-((trans)-4-(4-(cyclopropylmethyl)piperazin-1-yl)cyclohexyl)-3-methoxybenzamide]", "values": [
      {"measurement": "oral bioavailability (% F)", "setting": "[2]", "value": "markedly superior"},
      {"measurement": "systemic exposure (AUC of plasma concentration vs time)", "setting": "[2]; iv 1 mg/kg and oral 5-10 mg/kg", "value": "markedly superior"}
    ]},
    {"smiles": "CN1C(=O)CCN(C2CCCC2)c2nc(NCc3ccsc3)ncc21", "note": "[Compound 106, 9-Cyclopentyl-5-methyl-2-[(thiophen-3-ylmethyl)-amino]-5,7,8,9-tetrahydro-pyrimido[4,5-b][1,4]di-azepin-6-one]", "values": [
      {"measurement": "IC50", "setting": "human PLK1; Table 2", "value": "< 1", "unit": "µM"}
    ]},
    {"smiles": "COc1cc(C(=O)NC2c3ccccc3C[C@H]2O)ccc1Nc1ncc2c(n1)N(C1CCCC1)CC1(CC1)C(=O)N2C", "note": "(stereo partly drawn) [Compound 184, 4-(9-Cyclopentyl-5-methyl-6-oxo-6,7,8,9-tetrahydro-5H-spiro[pyrimido[4,5-b] [1,4]diazepin-3,1′-cyclopropane]-2-ylamino)-N-((1S,2R)-2-hydroxy-indan-1-yl)-3-methoxy-benzamide]", "values": [
      {"measurement": "IC50", "setting": "human PLK1; Table 2", "value": "< 1", "unit": "µM"}
    ]},
    {"smiles": "COc1cc(C(=O)NC2CCN(C)CC2)ccc1Nc1ncc2c(n1)N(C(C)C)CC1(CC1)C(=O)N2C", "note": "[Compound 99, 4-(9-Isopropyl-5-methyl-6-oxo-6,7,8,9-tetrahydro-5H-spiro[pyrimido[4,5-b] [1,4]diazepin-3,1′-cyclopropane]-2-ylamino)-3-methoxy-N-(1-methyl-piperidin-4-yl)-benzamide]", "values": [
      {"measurement": "IC50", "setting": "human PLK1; Table 2", "value": "< 1", "unit": "µM"}
    ]},
    {"smiles": "COc1cc(C(=O)NN2CCCC2)ccc1Nc1ncc2c(n1)N(C1CCCC1)CC1(CC1)C(=O)N2C", "note": "[Example [I-253] of WO 07/095188, reference compound]", "values": [
      {"measurement": "solubility", "setting": "[1]; [3]", "value": 75, "unit": "µM"}
    ]},
    {"smiles": "COc1cc(C(=O)NN2CCN(C)CC2)ccc1Nc1ncc2c(n1)N(C1CCCC1)CC1(CC1)C(=O)N2C", "note": "[[254]•HCl, 4-(9′-cyclopentyl-5′-methyl-6′-oxo-5′,6′,8′,9′-tetrahydrospiro[cyclopropane-1,7′-pyrimido[4,5-b][1,4]diazepine]-2′-ylamino)-3-methoxy-N-(4-methylpiperazin-1-yl)benzamide•HCl]", "values": [
      {"measurement": "solubility", "setting": "[1]; pH 7.5, read-out: Nephelometry maximum soluble concentration", "value": ">200", "unit": "µM"}
    ]},
    {"smiles": "COc1cc(C(=O)NC2CN3CCC2CC3)ccc1Nc1ncc2c(n1)N(C1CCCC1)CC1(CCC1)C(=O)N2C", "note": "(racemic) [Compound 218, (±)-4-(9′-cyclopentyl-5′-methyl-6′-oxo-5′,6′,8′,9′-tetrahydrospiro[cyclobutane-1,7′-pyrimido[4,5-b][1,4]diazepine]-2′-ylamino)-3-methoxy-N-(quinuclidin-3-yl)benzamide]", "values": [
      {"measurement": "selectivity for PLK1 versus PLK3 compared to compound [I-4]", "setting": "PLK3; relative to [I-4]", "value": 5, "unit": "fold"},
      {"measurement": "selectivity for PLK1 versus PLK3 compared to compound [I-64]", "setting": "PLK3; relative to [I-64]", "value": 5, "unit": "fold"},
      {"measurement": "selectivity for PLK1 versus PLK3 compared to compound [I-76]", "setting": "PLK3; relative to [I-76]", "value": "~12", "unit": "fold"},
      {"measurement": "PLK3 IC50/PLK1 IC50", "setting": "PLK3", "value": 330},
      {"measurement": "selectivity for PLK1 versus PLK2 compared to compound [I-4]", "setting": "PLK2; relative to [I-4]", "value": 7, "unit": "fold"},
      {"measurement": "selectivity for PLK1 versus PLK2 compared to compound [I-64] of WO 07/095,188", "setting": "PLK2; relative to [I-64]", "value": "twice as selective"},
      {"measurement": "selectivity for PLK1 versus PLK2 compared to compound [I-76]", "setting": "PLK2; relative to [I-76]", "value": "~6", "unit": "fold"},
      {"measurement": "PLK2 IC50/PLK1 IC50", "setting": "PLK2", "value": 35}
    ]},
    {"smiles": "COc1cc(C(=O)NC2CCN(C)CC2)ccc1Nc1ncc2c(n1)N(C1CCCC1)CC1(CCC1)C(=O)N2C", "note": "[WO 2007/095188 [I-64], reference compound]", "values": [
      {"measurement": "PLK3 IC50/PLK1 IC50", "setting": "PLK3", "value": 67},
      {"measurement": "PLK2 IC50/PLK1 IC50", "setting": "PLK2", "value": 17}
    ]},
    {"smiles": "COc1cc(C(=O)NCC2CCCCN2C)ccc1Nc1ncc2c(n1)N(C1CCCC1)CCC(=O)N2C", "note": "(stereo not shown) [Compound 202, 4-(9-Cyclopentyl-5-methyl-6-oxo-6,7,8,9-tetrahydro-5H-pyrimido[4,5-b] [1,4]diazepin-2-ylamino)-3-methoxy-N-(1-methyl-piperidin-2-ylmethyl)-benzamide]", "values": [
      {"measurement": "IC50", "setting": "human PLK1; Table 2", "value": "< 1", "unit": "µM"}
    ]},
    {"smiles": "CCN(CC)CCNC(=O)c1ccc(Nc2ncc3c(n2)N(CC2CC2)CCC(=O)N3C)c(OC)c1", "note": "[Compound 240, 4-(9-Cyclopropyl-methyl-5-methyl-6-oxo-6,7,8,9-tetrahydro-5H-pyrimido[4,5-b] [1,4]diazepin-2-ylamino)-N-(2-diethylamino-ethyl)-3-methoxy-benzamide]", "values": [
      {"measurement": "IC50", "setting": "human PLK1; Table 2", "value": "< 0.1", "unit": "µM"}
    ]},
    {"smiles": "COc1cc(C(=O)NC2CCC(N3CCCN(Cc4ccccc4)CC3)CC2)ccc1Nc1ncc2c(n1)N(C1CCCC1)CC1(CC1)C(=O)N2C", "note": "(stereo not shown) [Compound 383, N-(4-(4-benzyl-1,4-diazepan-1-yl)cyclohexyl)-4-(9′-cyclopentyl-5′-methyl-6′-oxo-5′,6′,8′,9′-tetrahydrospiro[cyclopropane-1,7′-pyrimido[4,5-b][1,4]diazepine]-2′-ylamino)-3-methoxybenzamide]", "values": [
      {"measurement": "IC50", "setting": "human PLK1; Table 3, read-out: PLK 1 IC50", "value": "< 0.1", "unit": "µM"}
    ]},
    {"smiles": "COc1cc(C(=O)N[C@H]2CC[C@@H](N3CCOCC3)CC2)ccc1Nc1ncc2c(n1)N(C1CCCC1)CC1(CC1)C(=O)N2C", "note": "[Compound 391, 4-(9′-cyclopentyl-5′-methyl-6′-oxo-5′,6′,8′,9′-tetrahydrospiro[cyclopropane-1,7′-pyrimido[4,5-b][1,4]diazepine]-2′-ylamino)-3-methoxy-N-((cis)-4-morpholinocyclohexyl)benzamide]", "values": [
      {"measurement": "IC50", "setting": "human PLK1; Table 3, read-out: PLK 1 IC50", "value": "0.1 to 1", "unit": "µM"}
    ]},
    {"smiles": "COc1cc(C(=O)NC2CCN(C)CC2)ccc1Nc1ncc2c(n1)N(C1CCCC1)CC1(CC1)C(=O)N2C", "note": "[WO 2007/095188 [I-76], reference compound]", "values": [
      {"measurement": "PLK3 IC50/PLK1 IC50", "setting": "PLK3", "value": 26},
      {"measurement": "PLK2 IC50/PLK1 IC50", "setting": "PLK2", "value": 6}
    ]}
  ]
}
